Marks after values point to notes of the source that are not given here.
Experiments:
[1] = test system: rumen fermentation parameters; assay: In vivo test: rumen volatile fatty acids and ammonia nitrogen; conditions: rumen of sheep; for iso-valeric (VFA profile): control 1.60; for Valeric (VFA profile): control 1.69; for Butiric (VFA profile): control 3.69; for C2/C3 (acetate to propionate ratio): control 4.59; for iso-butiric (VFA profile): control 6.73; for Propionic (VFA profile): control 15.7; for NH3—N (ammonia Nitrogen concentration): control 42.5; for Acetic (VFA profile): control 70.6; for Total volatile fatty acid concentration: control 111.3
Text: (§1) The experimental design consisted of a cross-over design with 2 sheep per treatment in each period. The trial consisted in 3 consecutive periods of: 14 days of adaptation to the dose plus three consecutive days of methane measurements in chambers. This 14 days adaptation phase was established as the period necessary for wash out between different doses assayed in consecutive periods. During the last two days of methane measurements in chambers rumen contents samples were collected two hours after the morning feeding, sub sampled and immediately frozen prior DNA extraction and determination of volatile fatty acids and ammonia nitrogen concentration. Experimental animals were randomly allocated in three sub-groups of 2 animals and were assigned one of the three treatments (control, dose 1 and dose 2). The 3 sub-groups started the adaptation period with a gap of three days so they had the same number of adaptation days prior to methane measurement in the chambers. Each animal was held in cages with constant access to fresh water. The diet provided to the animals consisted of alfalfa hay chopped at 15 to 20 cm and concentrate in a proportion 1:1 at approximately 1.1 times the energy requirements maintenance level (Prieto et al, 1990) plus mineral-vitamin supplement. Fresh matter intake was monitored daily for each animal throughout the trial. The diet was provided to animals in two equal meals at 9.00 h and 14.00 h.
The additive was provided twice a day through the ruminal cannula at the same time as the diet. The corresponding amount to each dose was added into 10 grams of grounded concentrate and wrapped in cellulose paper immediately before it was placed in the rumen. In order to avoid the volatility of the active molecule, both additives were kept in a cold room at 4° C. where the daily process of dispensing it in the cellulose bags was carried out.
The doses were 50 (dose 1) and 500 (dose 2) mg/animal per day. The higher dose was reached after 3 days of gradual increases (50, 200 and 500 mg), so the whole adaptation period was consequently extended for 3 more days.
Volatile fatty acids were analysed by gas chromatography and ammonia N concentration by colorimetry according to (Cantalapiedra-Híjar et al. Journal of Animal Science. 87, 622-631, 2009).
Individual methane emissions, VFA profiles, ratio of acetate to propionate, ammonia N concentration, and log10 transformations of concentration of total bacteria, total protozoa and methanogenic archaea were analyzed for the following effects: additive dose, day of measurement, and their interaction using a repeated measures analysis of variance under the cross-over design arrangement of the experiment. The standard error of the mean (SEM) was computed for each analysis. No significant effect of the measuring day or its interaction with additive dose was detected in either experiments, so only the effect of the dose is included in the tables. Means were further compared using a least significant difference (LSD) procedure. The SPSS for Windows, version 14.0 (2005; SPSS Inc., Chicago, Ill.) was used for data entry and statistical analysis.

protozoa (18SrRNA) = assay: In vivo test: qPCR of total protozoa in rumen contents; conditions: rumen of sheep; for Total protozoa concentration: control 2.38 × 10^6; for Total protozoa, log10: control 6.35
Text: as §1
Samples of rumen contents were freeze-dried and thoroughly mixed by physical disruption using a bead beater (Mini-bead Beater; BioSpec Products, Bartlesville, Okla., USA) before DNA extraction, which was performed from approximately 50 mg sample using the QIAamp® DNA Stool Mini Kit (Qiagen Ltd, West Sussex, UK) following the manufacturer's instructions with the modification that a higher temperature (95° C.) was used for lysis incubation. DNA samples were used as templates for quantitative real-time PCR (qPCR) amplification. The numbers of total bacteria, total protozoa and total methanogenic archaea were quantified by Real Time—PCR (qPCR).
Different primer sets were used to amplify 16S rRNA gene-targeted total bacteria (Maeda et al. FEMS Inmunology and Medical Microbiology 39, 81-86, 2003), and protozoa (Sylvester et al. Journal Dairy Science. 88, 2083-2095 2005). […] The amplification efficiency was evaluated for each pair of primers with the following program: 5 min cycle at 95° C., 40 cycles at 95° C. for 15 s, 60° C. for 30 s, 72° C. for 55 s and, 75° C. during 6 s for fluorescent emission measures. The melting curve was built by increasing temperature from 55° C. to 95° C. and reading were taken every 5° C. […] The absolute amount of bacteria, protozoa and methanogenic archaea expressed as the number of DNA copies, was determined by using standards. […]

Question: Which results are given for `CCOC(=O)CCO[N+](=O)[O-]` [Ethyl-3-nitrooxy propionate]?
Answer: iso-valeric (VFA profile) ([1]; Dose 1 (50 mg/animal per day)): 1.50 mol/100 mol; Valeric (VFA profile) ([1]; Dose 1 (50 mg/animal per day)): 1.55^a mol/100 mol; Butiric (VFA profile) ([1]; Dose 1 (50 mg/animal per day)): 3.50 mol/100 mol; C2/C3 (acetate to propionate ratio) ([1]; Dose 1 (50 mg/animal per day)): 4.26^ab; iso-butiric (VFA profile) ([1]; Dose 1 (50 mg/animal per day)): 5.57^a mol/100 mol; Propionic (VFA profile) ([1]; Dose 1 (50 mg/animal per day)): 16.8^ab mol/100 mol; NH3—N (ammonia Nitrogen concentration) ([1]; Dose 1 (50 mg/animal per day)): 40.5 mg/100 ml; Acetic (VFA profile) ([1]; Dose 1 (50 mg/animal per day)): 71.0^a mol/100 mol; Total volatile fatty acid concentration ([1]; Dose 1 (50 mg/animal per day)): 123.3^a mmol/l; iso-valeric (VFA profile) ([1]; Dose 2 (500 mg/animal per day)): 1.76 mol/100 mol; Valeric (VFA profile) ([1]; Dose 2 (500 mg/animal per day)): 2.42^b mol/100 mol; Butiric (VFA profile) ([1]; Dose 2 (500 mg/animal per day)): 3.47 mol/100 mol; C2/C3 (acetate to propionate ratio) ([1]; Dose 2 (500 mg/animal per day)): 3.57^b; iso-butiric (VFA profile) ([1]; Dose 2 (500 mg/animal per day)): 8.06^b mol/100 mol; Propionic (VFA profile) ([1]; Dose 2 (500 mg/animal per day)): 18.8^b mol/100 mol; NH3—N (ammonia Nitrogen concentration) ([1]; Dose 2 (500 mg/animal per day)): 40.1 mg/100 ml; Acetic (VFA profile) ([1]; Dose 2 (500 mg/animal per day)): 65.5^b mol/100 mol; Total volatile fatty acid concentration ([1]; Dose 2 (500 mg/animal per day)): 104.1^b mmol/l; Total protozoa concentration (protozoa (18SrRNA); Dose 1 (50 mg/animal per day)): 2.08 × 10^6 copy gene numbers/g fresh matter; Total protozoa, log10 (protozoa (18SrRNA); Dose 1 (50 mg/animal per day)): 6.28 log10; Total protozoa concentration (protozoa (18SrRNA); Dose 2 (500 mg/animal per day)): 2.77 × 10^6 copy gene numbers/g fresh matter; Total protozoa, log10 (protozoa (18SrRNA); Dose 2 (500 mg/animal per day)): 6.43 log10

Reference: patent publication US9365489B2, “Nitrooxy alkanoic acids and derivatives thereof in feed for reducing methane emission in ruminants, and/or to improve ruminant performance” (priority 2009, dated 2016)
